# In patent US20250302815A1, “PROTEIN TYROSINE PHOSPHATASE TARGETING LIGANDS” (CALICO LIFE SCIENCES LLC, priority 2021, published 2025):
# “And” between values parts separate entries of the source, which are not always exact repeats. Equal entries are not always repeated.
# Tests used:
# [1] = target: T1, PTPN2 (HiBIT-PTPN2 in 293T.109 cells) (Homo sapiens, UniProt P17706); experiment: HiBiT Degradation 293T.109 PTPN2 (Nano-Glo HiBiT Lytic Assay); assay type: cell-based; details: 24.0 hours
# T1 construct: expressed in transfected cells; host or cells: 293T.109 (293T WT from ATCC)
# T1 sequence (P17706 1-415): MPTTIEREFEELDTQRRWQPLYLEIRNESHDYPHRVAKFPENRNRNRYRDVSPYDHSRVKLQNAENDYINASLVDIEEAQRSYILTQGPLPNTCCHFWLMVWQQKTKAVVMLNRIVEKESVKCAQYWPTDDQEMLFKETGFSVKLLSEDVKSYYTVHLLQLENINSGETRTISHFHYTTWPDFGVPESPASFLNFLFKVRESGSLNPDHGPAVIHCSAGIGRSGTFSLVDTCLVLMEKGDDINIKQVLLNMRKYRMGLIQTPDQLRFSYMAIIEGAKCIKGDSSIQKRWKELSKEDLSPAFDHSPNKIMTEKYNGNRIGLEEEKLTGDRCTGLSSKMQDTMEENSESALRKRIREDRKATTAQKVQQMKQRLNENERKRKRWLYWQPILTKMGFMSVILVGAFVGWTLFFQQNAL
# From the text: Dulbecco's modified Eagle medium (DMEM) without phenol red and fetal bovine serum (FBS) were purchased from Gibco (Grand Island, NY, USA). Nano-Glo® HiBIT Lytic Assay System was purchased from Promega (Madison, WI, USA). 293T.109 (HiBIT-PTPN2) cell line was generated by ectopically expressing PTPN2 with N-terminal HiBIT fusion tag in 293T WT cell line purchased from ATCC (Manassas, VA, USA). Cell culture flasks and 384-well microplates were acquired from VWR (Radnor, PA, USA).
# PTPN2 degradation was determined based on quantification of luminescent signal using Nano-Glo® HiBIT Lytic Assay kit. Test compounds were added to the 384-well plate from a top concentration of 10 μM with 11 points, half log titration in duplicates. 293T.109 cells were added into 384-well plates at a cell density of 5000 cells per well. The plates were kept at 37° C. with 5% CO2 for 24 hours. The cells treated in the absence of the test compound were the negative control and the cells without Nano-Glo® HiBIT Lytic reagent were the positive control. After 24-hour incubation, Nano-Glo® HiBiT Lytic Assay reagents were added to the cells. Luminescence was acquired on EnVision™ Multilabel Reader (PerkinElmer, Santa Clara, CA, USA).
# [2] = target: T2, PTPN2 (B16F10.4 cells) (Mus musculus, UniProt Q06180); experiment: HiBiT Degradation B16F10.4 PTPN2; assay type: cell-based; details: 24.0 hours
# T2 construct: HiBiT; host or cells: B16F10.4
# T2 sequence (Q06180 1-406): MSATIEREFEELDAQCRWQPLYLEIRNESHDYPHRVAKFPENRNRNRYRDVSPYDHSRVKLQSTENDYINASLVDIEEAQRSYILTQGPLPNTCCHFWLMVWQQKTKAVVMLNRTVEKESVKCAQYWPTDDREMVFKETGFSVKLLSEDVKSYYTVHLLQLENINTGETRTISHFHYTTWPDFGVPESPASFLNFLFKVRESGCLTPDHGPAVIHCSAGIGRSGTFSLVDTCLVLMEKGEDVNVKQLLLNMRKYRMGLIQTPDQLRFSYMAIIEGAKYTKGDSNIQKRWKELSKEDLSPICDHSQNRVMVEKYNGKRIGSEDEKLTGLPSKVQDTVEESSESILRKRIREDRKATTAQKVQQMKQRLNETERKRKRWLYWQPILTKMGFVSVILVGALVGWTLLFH
DC50 [1] [µM],DC50 [2],SMILES
0.05 to 0.2,0.2 to 1 µM,"Cn1c(=O)n(C2CCC(=O)NC2=O)c2cc(F)c(C3CCN(C(=O)Nc4cccc(CS(=O)(=O)N5CC[C@H](Nc6cccc(-c7sc(C(=O)O)c(OCC(=O)O)c7Cl)c6)CC5(C)C)c4)CC3)cc21 (stereo partly drawn) [Example 153, 3-(carboxymethoxy)-4-chloro-5-[3-[[(4S)-1-[[3-[[4-[1-(2,6-dioxo-3-piperidyl)-6-fluoro-3-methyl-2-oxo-benzimidazol-5-yl]piperidine-1-carbonyl]amino]phenyl]methylsulfonyl]-2,2-dimethyl-4-piperidyl]amino]phenyl]thiophene-2-carboxylic acid]"
0.2 to 1,0.2 to 1 µM,"O=C(O)COc1c(C(=O)O)sc(-c2cccc(NC3CCN(S(=O)(=O)Cc4cccc(NC(=O)CNc5ccc6c(c5)C(=O)N(C5CCC(=O)NC5=O)C6=O)c4)CC3)c2)c1Cl (centres unmarked) [Example 23, 3-(carboxymethoxy)-4-chloro-5-[3-[[1-[[3-[[2-[[2-(2,6-dioxo-3-piperidyl)-1,3-dioxo-isoindolin-5-yl]amino]acetyl]amino]phenyl]methylsulfonyl]-4-piperidyl]amino]phenyl]thiophene-2-carboxylic acid]"
< 0.05,0.05 to 0.2 µM,Cn1c(=O)n(C2CCC(=O)NC2=O)c2ccc(NC3CN(C(=O)Nc4cccc(CS(=O)(=O)N5CC[C@H](Nc6cccc(-c7sc(C(=O)O)c(OCC(=O)O)c7Cl)c6)CC5(C)C)c4)C3)cc21 (some centres unmarked) [Example 79]
0.05 to 0.2,≥ 1 µM,"CN(C(=O)CCN1CCC(Nc2cccc3c2CN(C2CCC(=O)NC2=O)C3=O)CC1)c1cccc(CS(=O)(=O)N2CCC(Nc3cccc(-c4sc(C(=O)O)c(OCC(=O)O)c4Cl)c3)CC2(C)C)c1 (centres unmarked) [Example 71, 3-(carboxymethoxy)-4-chloro-5-(3-((1-((3-(3-(4-((2-(2,6-dioxopiperidin-3-yl)-1-oxoisoindolin-4-yl)amino)piperidin-1-yl)-N-methylpropanamido)benzyl)sulfonyl)-2,2-dimethylpiperidin-4-yl)amino)phenyl)thiophene-2-carboxylic acid]"
0.2 to 1,0.2 to 1 µM,"CC1(C)C[C@@H](Nc2cccc(-c3sc(C(=O)O)c(OCC(=O)O)c3Cl)c2)CCN1S(=O)(=O)Cc1cccc(NC(=O)CNc2ccc3c(c2)C(=O)N(C2CCC(=O)NC2=O)C3=O)c1 (stereo partly drawn) [Example 34, 3-(carboxymethoxy)-4-chloro-5-[3-[[(4S)-1-[[3-[[2-[[2-(2,6-dioxo-3-piperidyl)-1,3-dioxo-isoindolin-5-yl]amino]acetyl]amino]phenyl]methylsulfonyl]-2,2-dimethyl-4-piperidyl]amino]phenyl]thiophene-2-carboxylic acid]"
0.2 to 1,≥ 1 µM,"CC1(C)C[C@H](Nc2cccc(-c3sc(C(=O)O)c(OCC(=O)O)c3Cl)c2)CCN1S(=O)(=O)Cc1ccc(F)c(NC(=O)[C@H]2[C@@H]3CN(C(=O)CNc4cccc5c4CN(C4CCC(=O)NC4=O)C5=O)C[C@@H]32)c1 (stereo partly drawn) [Example 111, 3-(carboxymethoxy)-4-chloro-5-(3-(((4R)-1-((3-((1R,5S,6r)-3-((2-(2,6-dioxopiperidin-3-yl)-1-oxoisoindolin-4-yl)glycyl)-3-azabicyclo[3.1.0]hexane-6-carboxamido)-4-fluorobenzyl)sulfonyl)-2,2-dimethylpiperidin-4-yl)amino)phenyl)thiophene-2-carboxylic acid]"
0.2 to 1,0.05 to 0.2 µM,"Cn1c(=O)n(C2CCC(=O)NC2=O)c2ccc(C3CCN(C(=O)Nc4cccc(CS(=O)(=O)N5CC[C@H](Oc6cccc(-c7sc(C(=O)O)c(OCC(=O)O)c7Cl)c6)CC5(C)C)c4)CC3)cc21 (stereo partly drawn) [Example 225, 3-(carboxymethoxy)-4-chloro-5-(3-(((4S)-1-((3-(4-(1-(2,6-dioxopiperidin-3-yl)-3-methyl-2-oxo-2,3-dihydro-1H-benzo[d]imidazol-5-yl)piperidine-1-carboxamido)benzyl)sulfonyl)-2,2-dimethylpiperidin-4-yl)oxy)phenyl)thiophene-2-carboxylic acid]"
< 0.05,< 0.05 µM,"Cn1c(=O)n(C2CCC(=O)NC2=O)c2ccc([C@H]3CC[C@H](C(=O)Nc4cccc(CS(=O)(=O)N5CC[C@H](Nc6cccc(-c7sc(C(=O)O)c(OCC(=O)O)c7Cl)c6)CC5(C)C)c4)CC3)cc21 (stereo partly drawn) [Example 138, 3-(carboxymethoxy)-4-chloro-5-(3-(((4S)-1-((3-((1r,4S)-4-(1-(2,6-dioxopiperidin-3-yl)-3-methyl-2-oxo-2,3-dihydro-1H-benzo[d]imidazol-5-yl)cyclohexane-1-carboxamido)benzyl)sulfonyl)-2,2-dimethylpiperidin-4-yl)amino)phenyl)thiophene-2-carboxylic acid]"
< 0.05,0.05 to 0.2 µM,"CC1(C)C[C@@H](Nc2cccc(-c3sc(C(=O)O)c(OCC(=O)O)c3Cl)c2)CCN1S(=O)(=O)Cc1cccc(NC(=O)CN2CCC(c3ccc4c5c(cccc35)C(=O)N4C3CCC(=O)NC3=O)CC2)c1 (stereo partly drawn) [Example 83, 3-(carboxymethoxy)-4-chloro-5-[3-[[(4S)-1-[[3-[[2-[4-[1-(2,6-dioxo-3-piperidyl)-2-oxo-benzo[cd]indol-6-yl]-1-piperidyl]acetyl]amino]phenyl]methylsulfonyl]-2,2-dimethyl-4-piperidyl]amino]phenyl]thiophene-2-carboxylic acid]"
0.05 to 0.2,< 0.05 µM,"CC1(C)C[C@@H](Nc2cccc(-c3sc(C(=O)O)c(OCC(=O)O)c3Cl)c2)CCN1S(=O)(=O)Cc1cccc(NC(=O)NCCC2CCN(c3ccc4c5c(cccc35)C(=O)N4C3CCC(=O)NC3=O)CC2)c1 (stereo partly drawn) [Example 219, 3-(carboxymethoxy)-4-chloro-5-(3-(((4S)-1-((3-(3-(2-(1-(1-(2,6-dioxopiperidin-3-yl)-2-oxo-1,2-dihydrobenzo[cd]indol-6-yl)piperidin-4-yl)ethyl)ureido)benzyl)sulfonyl)-2,2-dimethylpiperidin-4-yl)amino)phenyl)thiophene-2-carboxylic acid]"
0.05 to 0.2,0.05 to 0.2 µM,"CCn1nc(C2CCC(=O)NC2=O)c2ccc(C3CCN(C(=O)Nc4cccc(CS(=O)(=O)N5CC[C@H](Nc6cccc(-c7sc(C(=O)O)c(OCC(=O)O)c7Cl)c6)CC5(C)C)c4)CC3(F)F)cc21 (stereo partly drawn) [Example 200, 3-(carboxymethoxy)-4-chloro-5-[3-[[(4S)-1-[[3-[[4-[3-(2,6-dioxo-3-piperidyl)-1-ethyl-indazol-6-yl]-3,3-difluoro-piperidine-1-carbonyl]amino]phenyl]methylsulfonyl]-2,2-dimethyl-4-piperidyl]amino]phenyl]thiophene-2-carboxylic acid]"
0.2 to 1,0.2 to 1 µM,"CC1Cc2cc(C3CCN(C(=O)Nc4cccc(CS(=O)(=O)N5CC[C@H](Nc6cccc(-c7sc(C(=O)O)c(OCC(=O)O)c7Cl)c6)CC5(C)C)c4)CC3)ccc2N1C1CCC(=O)NC1=O (stereo partly drawn) [Example 95, 3-(carboxymethoxy)-4-chloro-5-[3-[[(4S)-1-[[3-[[4-[1-(2,6-dioxo-3-piperidyl)-2-methyl-indolin-5-yl]piperidine-1-carbonyl]amino]phenyl]methylsulfonyl]-2,2-dimethyl-4-piperidyl]amino]phenyl]thiophene-2-carboxylic acid]"
0.05 to 0.2,0.05 to 0.2 µM and < 0.05 µM,"CC(C)n1c(=O)n(C2CCC(=O)NC2=O)c2ccc(C3CCN(C(=O)Nc4cccc(CS(=O)(=O)N5CC[C@H](Nc6cccc(-c7sc(C(=O)O)c(OCC(=O)O)c7Cl)c6)CC5(C)C)c4)CC3)cc21 (stereo partly drawn) [Example 87, 3-(carboxymethoxy)-4-chloro-5-[3-[[(4S)-1-[[3-[[4-[1-(2,6-dioxo-3-piperidyl)-3-isopropyl-2-oxo-benzimidazol-5-yl]piperidine-1-carbonyl]amino]phenyl]methylsulfonyl]-2,2-dimethyl-4-piperidyl]amino]phenyl]thiophene-2-carboxylic acid]"
